Results as given in ChEMBL document CHEMBL1152778, “Design, synthesis, and biological evaluation of (2R,alphaS)-3,4-dihydro-2-[3-(1,1,2,2-tetrafluoroethoxy)phenyl]-5-[3-(trifluoromethoxy)-phenyl]-alpha-(trifluoromethyl)-1(2H)-quinolineethanol as potent and orally active cholesteryl ester transfer protein inhibitor” (J Med Chem, 2009).
Active and inactive are the calls of the source. The rule behind the calls is not given here.

Experiments:
Cynomolgus monkey [1] = experiment: Ex vivo inhibition of CETP in normal chow diet-fed cynomolgus monkey at 10 mg/kg, po for 5 days by Roar assay; format: functional; details: Macaca fascicularis, 120 h
Hamster = experiment: Increase in HDLC level in high-fat fed hamster model at 30 mg/kg, po for 5 days measured after 2 hrs of last dose; format: functional, Cricetinae
[2] = Plasma concentration in normal chow diet-fed cynomolgus monkey at 30 mg/kg, po for 5 days; format: ADME, organism-based, Macaca fascicularis; design: dose 30 mg/kg, route oral
Mus musculus = experiment: Increase in HDLC level in normal chow diet-fed human CETP transgenic mouse model at 30 mg/kg, po for 5 days measured after 2 hrs of last dose; format: functional
Cynomolgus monkey [3] = experiment: Increase in HDLC level in normal chow diet-fed cynomolgus monkey at 30 mg/kg, po for 5 days measured after 10 hrs of last dose; format: functional, Macaca fascicularis
[4] = molecular target: T1, Endothelial lipase (Homo sapiens) (UniProt Q9Y5X9); experiment: Inhibition of endothelial lipase by cell based assay
T1 sequence (whole entry): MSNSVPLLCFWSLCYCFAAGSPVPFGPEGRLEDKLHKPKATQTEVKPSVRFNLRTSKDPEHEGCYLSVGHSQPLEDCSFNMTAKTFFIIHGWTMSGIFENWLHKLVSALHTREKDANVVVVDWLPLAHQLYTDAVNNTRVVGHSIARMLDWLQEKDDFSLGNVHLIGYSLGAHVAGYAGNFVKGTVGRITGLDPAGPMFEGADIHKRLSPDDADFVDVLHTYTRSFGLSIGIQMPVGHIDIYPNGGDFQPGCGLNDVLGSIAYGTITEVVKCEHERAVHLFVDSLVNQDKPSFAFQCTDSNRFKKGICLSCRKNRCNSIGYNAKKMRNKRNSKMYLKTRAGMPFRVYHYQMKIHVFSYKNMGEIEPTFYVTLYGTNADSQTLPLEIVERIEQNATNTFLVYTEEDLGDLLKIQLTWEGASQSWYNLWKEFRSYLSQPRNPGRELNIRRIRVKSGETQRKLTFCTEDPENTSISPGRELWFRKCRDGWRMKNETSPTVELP

[5] = molecular target: T2, Lipoprotein lipase (Homo sapiens) (UniProt P06858); experiment: Inhibition of lipoprotein lipase activity assessed as release of free fatty acid from hydrolysis of VLDL by cell based assay
T2 sequence (whole entry): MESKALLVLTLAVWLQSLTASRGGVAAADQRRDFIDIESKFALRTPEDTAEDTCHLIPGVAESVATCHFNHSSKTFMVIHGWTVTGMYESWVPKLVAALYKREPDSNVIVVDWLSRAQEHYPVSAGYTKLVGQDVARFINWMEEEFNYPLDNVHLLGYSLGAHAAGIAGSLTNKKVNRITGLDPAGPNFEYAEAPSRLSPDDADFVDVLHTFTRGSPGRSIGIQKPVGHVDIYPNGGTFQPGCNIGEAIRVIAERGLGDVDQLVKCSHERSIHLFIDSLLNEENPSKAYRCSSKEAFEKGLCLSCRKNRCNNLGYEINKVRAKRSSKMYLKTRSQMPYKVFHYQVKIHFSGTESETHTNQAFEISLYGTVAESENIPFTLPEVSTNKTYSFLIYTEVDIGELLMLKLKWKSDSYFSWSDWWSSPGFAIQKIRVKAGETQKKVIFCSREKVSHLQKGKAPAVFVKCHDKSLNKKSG

Cynomolgus monkey [6] = experiment: Increase in HDLC level in normal chow diet-fed cynomolgus monkey at 10 mg/kg, po for 5 days measured after 10 hrs of last dose; format: functional, Macaca fascicularis
Cynomolgus monkey [7] = experiment: Ex vivo inhibition of CETP in normal chow diet-fed cynomolgus monkey at 30 mg/kg, po for 5 days by Roar assay; format: functional; details: Macaca fascicularis, 120 h
[8] = molecular target: Phospholipid transfer protein (Homo sapiens) (UniProt P55058); experiment: Inhibition of PLTP activity assessed as phosphatidylcholine transferred from [3H]phosphatidylcholine (dipalmitoyl)-labeled liposomes to HDL by cell based liquid scintillation counter
Phospholipid transfer protein (Homo sapiens), sequence (P55058 whole entry): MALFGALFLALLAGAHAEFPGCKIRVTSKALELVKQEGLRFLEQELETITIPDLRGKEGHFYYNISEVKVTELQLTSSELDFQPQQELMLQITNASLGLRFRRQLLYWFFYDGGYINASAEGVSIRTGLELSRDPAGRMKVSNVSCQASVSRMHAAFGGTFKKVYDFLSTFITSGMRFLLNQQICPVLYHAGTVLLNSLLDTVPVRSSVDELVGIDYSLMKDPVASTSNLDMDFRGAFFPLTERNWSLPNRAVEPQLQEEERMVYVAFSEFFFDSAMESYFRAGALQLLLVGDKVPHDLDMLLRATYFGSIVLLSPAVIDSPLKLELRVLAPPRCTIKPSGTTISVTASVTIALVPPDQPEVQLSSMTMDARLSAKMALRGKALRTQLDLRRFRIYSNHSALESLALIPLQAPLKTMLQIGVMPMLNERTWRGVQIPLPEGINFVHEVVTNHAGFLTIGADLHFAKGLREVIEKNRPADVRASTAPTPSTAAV

[9] = molecular target: T3, Hepatic triacylglycerol lipase (Homo sapiens) (UniProt P11150); experiment: Inhibition of hepatic lipase activity assessed as release of free fatty acid from hydrolysis of VLDL by cell based assay
T3 sequence (whole entry): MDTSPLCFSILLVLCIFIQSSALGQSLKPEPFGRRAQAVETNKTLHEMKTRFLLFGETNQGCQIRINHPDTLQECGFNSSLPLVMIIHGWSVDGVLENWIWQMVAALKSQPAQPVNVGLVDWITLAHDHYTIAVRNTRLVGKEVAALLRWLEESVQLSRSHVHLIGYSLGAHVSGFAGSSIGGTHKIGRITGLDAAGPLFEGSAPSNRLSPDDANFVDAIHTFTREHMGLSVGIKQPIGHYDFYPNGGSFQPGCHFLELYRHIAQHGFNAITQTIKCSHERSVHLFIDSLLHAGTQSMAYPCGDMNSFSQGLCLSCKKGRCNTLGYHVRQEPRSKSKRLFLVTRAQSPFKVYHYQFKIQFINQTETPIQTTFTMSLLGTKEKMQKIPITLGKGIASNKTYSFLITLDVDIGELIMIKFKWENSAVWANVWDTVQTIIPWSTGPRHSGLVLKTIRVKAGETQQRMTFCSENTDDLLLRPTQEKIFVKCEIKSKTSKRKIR

[10] = Plasma concentration in normal chow diet-fed cynomolgus monkey at 10 mg/kg, po for 5 days; format: ADME, organism-based, Macaca fascicularis; design: dose 10 mg/kg, route oral
[11] = molecular target: T4, Microsomal triglyceride transfer protein large subunit (Homo sapiens) (UniProt P55157); experiment: Inhibition of microsomal triglyceride transfer protein by cell based assay
T4 sequence (whole entry): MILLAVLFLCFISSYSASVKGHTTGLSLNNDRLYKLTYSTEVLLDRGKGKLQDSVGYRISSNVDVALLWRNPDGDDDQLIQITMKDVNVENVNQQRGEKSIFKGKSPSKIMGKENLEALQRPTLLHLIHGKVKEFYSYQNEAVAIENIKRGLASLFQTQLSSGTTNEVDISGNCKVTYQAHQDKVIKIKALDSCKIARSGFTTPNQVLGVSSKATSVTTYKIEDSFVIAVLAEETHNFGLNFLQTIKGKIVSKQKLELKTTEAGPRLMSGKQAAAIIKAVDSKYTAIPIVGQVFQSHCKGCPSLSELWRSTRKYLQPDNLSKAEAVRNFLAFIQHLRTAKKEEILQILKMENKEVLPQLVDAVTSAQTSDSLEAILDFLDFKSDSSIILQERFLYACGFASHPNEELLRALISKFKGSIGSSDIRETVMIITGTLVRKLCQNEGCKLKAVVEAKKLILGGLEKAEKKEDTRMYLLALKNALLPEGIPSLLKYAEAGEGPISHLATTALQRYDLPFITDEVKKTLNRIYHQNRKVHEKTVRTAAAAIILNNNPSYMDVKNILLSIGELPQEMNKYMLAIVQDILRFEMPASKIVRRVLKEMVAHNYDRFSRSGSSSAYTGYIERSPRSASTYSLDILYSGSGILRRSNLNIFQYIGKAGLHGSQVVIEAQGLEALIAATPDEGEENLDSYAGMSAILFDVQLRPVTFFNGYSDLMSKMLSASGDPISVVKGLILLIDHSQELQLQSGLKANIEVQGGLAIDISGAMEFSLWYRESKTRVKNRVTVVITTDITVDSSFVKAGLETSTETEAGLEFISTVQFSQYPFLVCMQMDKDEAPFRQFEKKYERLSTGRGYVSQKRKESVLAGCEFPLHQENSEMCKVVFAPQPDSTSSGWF

[12] = Plasma concentration in normal chow diet-fed cynomolgus monkey at 3 mg/kg, po for 5 days; format: ADME, organism-based, Macaca fascicularis; design: dose 3 mg/kg, route oral
Cynomolgus monkey [13] = experiment: Ex vivo inhibition of CETP in normal chow diet-fed cynomolgus monkey at 3 mg/kg, po for 5 days by Roar assay; format: functional; details: Macaca fascicularis, 120 h
Cynomolgus monkey [14] = experiment: Increase in HDLC level in normal chow diet-fed cynomolgus monkey at 3 mg/kg, po for 5 days measured after 10 hrs of last dose; format: functional, Macaca fascicularis
[15] = molecular target: T5, Phosphatidylcholine-sterol acyltransferase (Homo sapiens) (UniProt P04180); experiment: Inhibition of LCAT activity in human plasma assessed as change in cholesteryl ester/free cholesterol ratio by cell based assay
T5 sequence (whole entry): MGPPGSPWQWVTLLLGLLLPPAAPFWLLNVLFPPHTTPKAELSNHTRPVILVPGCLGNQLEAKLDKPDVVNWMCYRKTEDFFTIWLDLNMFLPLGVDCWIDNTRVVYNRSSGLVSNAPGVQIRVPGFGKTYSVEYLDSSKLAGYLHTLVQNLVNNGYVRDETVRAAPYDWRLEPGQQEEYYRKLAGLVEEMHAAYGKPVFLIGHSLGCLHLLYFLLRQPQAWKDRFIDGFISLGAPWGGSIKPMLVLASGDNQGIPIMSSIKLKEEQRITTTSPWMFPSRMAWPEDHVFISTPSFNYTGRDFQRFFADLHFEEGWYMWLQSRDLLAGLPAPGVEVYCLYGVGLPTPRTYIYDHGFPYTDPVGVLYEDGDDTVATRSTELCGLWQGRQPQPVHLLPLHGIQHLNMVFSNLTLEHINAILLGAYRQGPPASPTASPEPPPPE

CCOC(=O)N1c2ccc(C(F)(F)F)cc2[C@@H](N(Cc2cc(C(F)(F)F)cc(C(F)(F)F)c2)C(=O)OC)C[C@H]1CC [TORCETRAPIB]
inhibition in vivo at 10 mg/kg (Cynomolgus monkey [1]): 66%
Activity (Hamster): 44%
concentration at 120 h [2]: 2.9 µM
Activity (Mus musculus): 28%
Activity (Cynomolgus monkey [3]): 44%
Activity [4]: inactive
Activity [5]: inactive
Activity (Cynomolgus monkey [6]): 41%
inhibition in vivo at 30 mg/kg (Cynomolgus monkey [7]): 85%
Activity [8]: inactive
Activity [9]: inactive
concentration at 120 h [10]: 1.3 µM
Activity [11]: inactive
concentration at 120 h [12]: 0.3 µM
inhibition in vivo at 3 mg/kg (Cynomolgus monkey [13]): 35%
Activity (Cynomolgus monkey [14]): 24%
Activity [15]: inactive
